# Test results from a melting point compilation (Tetko et al.; mined from patent text by program, amines drawn as free bases though some values may be those of a salt).
row,Structure (SMILES),melting point
1,CCOC(=O)c1ccc([N+](=O)[O-])cc1C,71 to 72 °C
2,COC(=O)c1cn2c(C)c(-c3ccccc3)sc2n1,155 to 157 °C
3,Cc1noc(NS(=O)(=O)c2ccc(-c3ccc(C(F)(F)F)cc3)s2)c1Br,132 °C
4,Cc1cc(C2(c3cccc(-c4cncnc4)c3)N=C(N)N(C)C2=O)ccc1O[C@H](C)c1ccccc1 (stereo partly specified),112 to 114 °C
5,COc1cccc(-c2c(Cl)c(CCl)nc3sc4c(c23)CCN(Cc2ccccc2)C4)c1OC,137 to 138 °C
6,CCCCOc1ccc(C(C)N(O)C(N)=O)cc1 (stereo unspecified),137 to 138 °C
7,CC(C)(C)C(=O)Oc1cc2c(s1)CCN(C(C(=O)C1CC1)c1ccccc1F)C2 (stereo unspecified),91 to 94 °C
8,COc1ccc(C=CC(=O)NO)cc1OC,183 to 185 °C
9,Cc1sc(C=O)cc1NC(=O)OCc1ccccc1,120 °C
10,CS(=O)c1cccc2c1CC(=O)N2C(N)=O (stereo unspecified),198 to 200 °C
11,CN(C)C(=O)c1nc(-c2cccc3ccccc23)no1,109 to 110 °C
12,O=C(NN1CCCCCC1)c1nc(-c2ccc(Cl)cc2Cl)c(-c2ccc(Cl)cc2)s1,185 to 186 °C
13,ON=C1CCC(C2CCCC2)=C1c1ccc(F)cc1,204 to 205 °C
14,CCCc1c(OCCCOc2c(C(C)=O)ccc(OCCCCCC(=O)O)c2CCC)ccc(C(C)=O)c1O,105 to 108 °C
15,O=[N+]([O-])c1cc(OCc2ccccc2)ccc1CCO,48 to 52 °C
16,CS(=O)(=O)c1ccc(C(Cc2ccc(F)cc2)C(=O)Nc2nc3ncccc3o2)cc1 (stereo unspecified),261 to 264 °C
17,CCCc1c(O)ccc2c(=O)cc(C(=O)OC)oc12,222 to 224 °C
18,CC[C@H](C)C(OCc1ccccc1F)[C@H]1[C@H]([N+](=O)[O-])[C@@H](c2cccs2)N[C@@H]1C(=O)NCCC(=O)O (stereo partly specified),94 to 96 °C
19,O=C1OC(c2cccc3ccccc23)=NC1=Cc1ccccc1,134 to 137 °C
20,CC(=O)SC(C)C(Cc1ccccc1)C(=O)Nc1cccc(C(=O)O)c1 (stereo unspecified),180 to 182 °C
21,COC(=O)N(C(=O)Cl)c1ccc(OC(F)(F)F)cc1,97 to 99 °C
22,N#CCc1cccc(OCc2csc(-c3ccccc3)n2)c1,108 to 110 °C
23,Cc1cc(C(=O)N2Cc3ccc(C(=O)NCc4cccnc4)n3Cc3ccccc32)ccc1I,176 to 177 °C
24,COc1ccc2cc(-c3cnc(Cc4ccccc4)o3)ccc2c1,122 to 124 °C
25,CCOc1ccccc1C(=N)N,78 to 84 °C
26,CCCN(CCCN1C(=O)c2ccccc2S1(=O)=O)C1CCc2cccc(OC)c2C1 (stereo unspecified),131 °C

row,Structure (SMILES),melting point
1,CC(C)(NC(=O)Cc1cccc2ccccc12)C(O)c1ccccc1 (stereo unspecified),106 to 107 °C
2,CCCCCCCCCCNC(=O)CCCOCCO,48 °C
3,O=C1CC(c2ccc(O)cc2O)Oc2cc(O)cc(O)c21 (stereo unspecified),258 to 259 °C
4,Cc1ccc(S(=O)(=O)Nc2onc(C)c2Br)cc1,169 to 172 °C
5,CC1(C)CCSc2cccc(O)c21,48 °C
6,CCON=C(C(N)=O)C(=O)OC,68 to 71 °C
7,CC1SC(=O)NN=C1c1ccc2c(c1)C(C)(C)C(=O)N2C(=O)Oc1ccccc1 (stereo unspecified),248 °C
8,O=c1cnc2c(NCCO)nc(SCc3cccc(Cl)c3F)nc2[nH]1,195 to 196 °C
9,CC1(c2cccc(NS(C)(=O)=O)c2)C2CN(C(=O)CCc3ccsc3)CC21 (stereo unspecified),180 °C
10,O=C(O)C1CCCc2c(-c3ccc(Cl)c(Cl)c3)noc2C1 (stereo unspecified),183 to 185 °C
11,Cc1[nH]cnc1CN1CCc2c(c3cccc(F)c3n2C)C1=O,230 to 233 °C
12,O=C(O)COc1ccc(C(=O)NCC2CCN(c3ccncc3)CC2)cc1,84 to 86 °C
13,COc1ccc2c(C=O)c(OCc3ccccc3)ccc2c1Br,214 to 220 °C
14,CC(C)[C@H]1NC(=O)[C@H]1N (relative stereo),91 to 93 °C
15,CCOc1nc(-c2cccc(Cl)c2)c2cc(C(O)(c3ccc(C(=O)OC(C)C)cc3)c3cncn3C)ccc2n1 (stereo unspecified),145 °C
16,NCc1ccc(S(=O)(=O)c2ccc(S(N)(=O)=O)s2)cc1,225 to 228 °C
17,Cc1cc([N+](=O)[O-])ccc1N=C1SCC2(CCCC2)N1C1CCCC1,118 to 119 °C
18,Cc1c(-c2ccccc2)noc1-c1ccccc1C(=O)O,159 to 161 °C
19,COc1cc(-c2cncn2-c2ccc(S(C)(=O)=O)cc2)ccc1C,174 to 175 °C
20,COc1ccc(C(F)(F)F)cc1-c1cccn2nc(Nc3ccc4c(c3)CCN(C(=O)OC(C)(C)C)C4)nc12,86 to 90 °C
21,CC(C)NC(=O)Nc1ccnnc1,206 to 209 °C
22,N#CCCNC(=O)c1cccc(-c2cccc3c2OC(Cc2cccc(C(F)(F)F)c2)C3)c1 (stereo unspecified),145 to 146 °C
23,CCC(O)c1nc2c(C(F)(F)F)cccc2c(O)c1C(=O)Nc1nccs1 (stereo unspecified),180 °C
24,CC(=O)OC1CC2=CCC3C4CCC(C(C)CCCC(C)C)C4(C)CCC3C2(C)C(OC(C)=O)C1OC(C)=O (stereo unspecified),109 to 110 °C
25,CCOC(=O)c1cc(C(=O)c2ccccc2Cl)c(-n2c(C)nnc2CNC(=O)Nc2cccc(OC)c2)s1,132 to 134 °C
26,COc1ccc(/C(=C/C=C/C(=O)O)C2CCCCC2)cc1,130 to 132 °C

row,Structure (SMILES),melting point
1,CCNc1cc(O)c(C)cc1Cl,205 °C
2,Cc1ccc(-n2ncc(-c3ccc(S(C)(=O)=O)cc3)c(-c3ccc(F)cc3)c2=O)cc1,190 to 192 °C
3,O=C(NC1(C(=O)O)CC1)C(CS)Cc1ccccc1 (stereo unspecified),222 to 224 °C
4,CON=C(c1ccc(OC(C)(C)C(=O)O)c(C)c1)c1cccs1,108 °C
5,Cn1nnnc1C(C=O)=C(c1ccc(F)cc1)c1ccc(F)cc1,135 to 137 °C
6,COc1cc2c(=O)c(S(=O)(=O)N(C)C)cn(C)c2cc1C,232 to 233 °C
7,CNC(=O)c1cc(-c2ccc(OC)cc2)nn(CC#N)c1=O,153 to 155 °C
8,NC(=O)[C@@H]1C[C@]2(NC(=O)N(CCCN3CCC(O)CC3)C2=O)c2cc(F)ccc2O1,208 to 209 °C
9,CC(C)(C)OP(=O)(CO)OC(C)(C)C,100 to 102 °C
10,CS(=O)c1nnc(-c2cc(C(C)(C)C)c(O)c(C(C)(C)C)c2)s1 (stereo unspecified),141 °C
11,Cc1cnc(NC(=O)c2cc(Oc3cnc(C(=O)N(C)C)cn3)cc(O[C@@H](C)COC(F)F)c2)cn1,75 °C
12,Cc1cc2c(nc1OCCCCN1CCN(c3cccc(Cl)c3Cl)CC1)NC(=O)CC2,138 to 139 °C
13,CCOc1cc(Cc2cnc(N)nc2N)cc(OCC)c1N,192 to 194 °C
14,Cc1c(O)cccc1C(=O)N[C@@H](Cc1ccccc1)[C@H](O)C(=O)N1CSC(C)(C)[C@H]1C(=O)NCc1cccc(OC(F)(F)F)c1,102 to 105 °C
15,Cc1c(-c2cnccn2)sc2nc(N)[nH]c(=O)c12,280 to 300 °C
16,C=CCCCc1ccc(C=CC(=O)c2ccc(OCC=C(C)C)cc2)c(OCC(=O)O)c1,116 to 118 °C
17,Nc1nc2ccccc2c2sc(CO)nc12,247 to 249 °C
18,COCCOc1ccc(/C=C/C(=O)O)c(OCc2ccc(Cl)cc2Cl)c1,176 to 178 °C
19,Cn1ncnc1COc1nn2c(-c3ccc(F)cc3F)nncc2c1-c1ccccc1F,164 to 166 °C
20,CC(NOCc1ccccc1)c1cc2ccccc2s1 (stereo unspecified),55 to 56 °C
21,O=C(c1ccc(F)cc1)N1CCN(S(=O)(=O)c2ccc(Nc3ccnc4cc(C(F)(F)F)ccc34)cc2)CC1,172 to 174 °C
22,CCOC(=O)C(C#N)=CNc1cccc(I)c1,140 to 141 °C
23,CCCCCCCCOc1cccc2c1C(=O)c1cccc(OCCCCCCCC)c1C2=O,90 to 94 °C
24,Cc1ccc(Sc2cncc3sc(C(N)=S)cc23)cc1,181 to 183 °C
25,COC(=O)c1ccc(-c2ccc(-c3ccccc3)c(-c3ccc4c(c3)C(C)(C)CCC4(C)C)c2)c(OC)c1,144 to 146 °C
26,COC(=O)c1ccc(OCC2CC(=O)N(c3ccc(OCC(C)C)cc3)C2)cc1 (stereo unspecified),118 °C

row,Structure (SMILES),melting point
1,Cc1cc(-c2nnc3c4ccccc4c(OCc4ncc[nH]4)nn23)no1,188 to 189 °C
2,CCOC(=O)c1ccc2c(=O)n3cc(C(=O)O)ccc3nc2c1,275 to 324 °C
3,COc1cccc(C(=O)Nc2ccc3ccc(OC)nc3n2)c1,135 °C
4,O=[N+]([O-])c1ccc2c(ccn2CCCCl)c1,74 to 76 °C
5,CSCN(C)C(=O)Nc1ccc(Cl)c(Cl)c1,103 °C
6,CC(=O)OCCCc1cc(C=C2SCN(C)C2=O)cc(CCCOC(C)=O)c1O,112 to 116 °C
7,Cc1cccc(Nc2cc(Nc3ccc(OCC(=O)N(C)C)cc3)ncn2)c1,135 to 138 °C
8,CN1CC=C(c2c[nH]c3ccc(NS(=O)(=O)c4cccc5ccccc45)cc23)CC1,244 to 245 °C
9,OCc1cn(Cc2cc(OCc3ccccc3)cc(OCc3ccccc3)c2)cc1-c1ccccc1,115 to 116 °C
10,CCCc1cc(=O)oc2cc(OC(=O)C(C)(C)C)c3c(c12)OC(C)(C)C=C3,65 to 68 °C
11,Cc1cccc(OCCO)c1,76 to 78 °C
12,N#Cc1ccc(Nc2nc(Cc3c(Cl)cccc3Cl)cc(NC(=O)CN3CCCCC3)n2)cc1,175 to 180 °C
13,COC(=O)c1ccc(CN(C(C)C)S(=O)(=O)c2ccc(Cl)cc2)cc1,110 to 112 °C
14,CCCCc1nc2sccc2[nH]1,160 °C
15,Fc1ccc(-c2c[nH]c([C@@H](NC3CCC3)C3CCCCC3)n2)cc1,170 to 172 °C
16,CC(=O)OCc1cc2cc(-c3ccc(OC(F)(F)F)cc3)ccc2n1Cc1ccc(C)cc1,125 to 126 °C
17,O[C@H]1[C@H](O)CS[C@H]1n1cnc2c(Cl)nc(Cl)nc21,198 to 200 °C
18,CC(C)(C)OC(=O)CC(=O)c1ccc(C#N)s1,78 °C
19,CCCc1c(O)ccc2oc(C(=O)OCC)cc12,99 to 101 °C
20,COC(=O)/C=C/[C@H](O)[C@H](Cc1ccccc1)NC(=O)OC(C)(C)C,108 to 109 °C
21,CN1C(=O)CC[C@]2(C)c3ccc(Sc4ncccc4[N+](=O)[O-])cc3CC[C@@H]12,80 to 84 °C
22,Cc1ccc(S(=O)(=O)Nc2ccc(C3SC(=O)NC3=O)cc2)cc1 (stereo unspecified),215 to 218 °C
23,Nc1ccc2c(S(=O)(=O)c3ccccc3)c[nH]c2c1,144 to 146 °C
